Data: patent publication US20050113292A1 (priority 2003, published 2005)

Legend:
[1] = system: HIV-1 mediated cell-cell fusion (R8 virus); settings: mediated cell-cell fusion (R8 virus)
T-tropic (R8) HIV-1 = settings: T-tropic (R8)
M-tropic (BAL) HIV-1 = settings: M-tropic (BAL)

Compound | IC50 [1] | IC50 (T-tropic (R8) HIV-1) | IC50 (M-tropic (BAL) HIV-1)
CC(C)C[C@H](NC(=O)[C@H](CO)NC(=O)[C@H](C)NC(=O)[C@H](Cc1c[nH]c2ccccc12)NC(=O)[C@H](CCCCN)NC(=O)[C@H](CC(=O)O)NC(=O)[C@H](CC(C)C)NC(=O)[C@H](CCC(=O)O)NC(=O)[C@H](CC(C)C)NC(=O)[C@@H]1CSC(C(=O)NCCCC[C@H](NC(=O)CCNC(=O)C2N[C@H](C(=O)N[C@@H](CC(C)C)C(=O)N[C@@H](CCC(=O)O)C(=O)N[C@@H](CC(C)C)C(=O)N[C@@H](CC(=O)O)C(=O)N[C@@H](CCCCN)C(=O)N[C@@H](Cc3c[nH]c4ccccc34)C(=O)N[C@@H](C)C(=O)N[C@@H](CO)C(=O)N[C@@H](CC(C)C)C(=O)N[C@@H](Cc3c[nH]c4ccccc34)C(=O)N[C@@H](CC(N)=O)C(=O)N[C@@H](Cc3c[nH]c4ccccc34)C(=O)N[C@@H](Cc3ccccc3)C(=O)O)CS2)C(=O)N[C@@H](CCCCNC(=O)CNC(=O)C2N[C@H](C(=O)N[C@@H](CC(C)C)C(=O)N[C@@H](CCC(=O)O)C(=O)N[C@@H](CC(C)C)C(=O)N[C@@H](CC(=O)O)C(=O)N[C@@H](CCCCN)C(=O)N[C@@H](Cc3c[nH]c4ccccc34)C(=O)N[C@@H](C)C(=O)N[C@@H](CO)C(=O)N[C@@H](CC(C)C)C(=O)N[C@@H](Cc3c[nH]c4ccccc34)C(=O)N[C@@H](CC(N)=O)C(=O)N[C@@H](Cc3c[nH]c4ccccc34)C(=O)N[C@@H](Cc3ccccc3)C(=O)O)CS2)C(=O)N[C@@H](CO)C(=O)N[C@@H](CO)C(=O)N[C@@H](C)C(N)=O)N1)C(=O)N[C@@H](Cc1c[nH]c2ccccc12)C(=O)N[C@@H](CC(N)=O)C(=O)N[C@@H](Cc1c[nH]c2ccccc12)C(=O)N[C@@H](Cc1ccccc1)C(=O)O (stereo partly drawn) [Compound 3α-C13] | 260 nM | 430 nM | 430 nM
CC[C@H](C)[C@H](NC(=O)[C@@H]1CSC(C(=O)NCCCC[C@H](NC(=O)CCNC(=O)C2N[C@H](C(=O)N[C@H](C(=O)N[C@@H](CCC(=O)O)C(=O)N[C@@H](CCC(=O)O)C(=O)N[C@@H](CO)C(=O)N[C@@H](CCC(N)=O)C(=O)N[C@@H](CC(N)=O)C(=O)N[C@@H](CCC(N)=O)C(=O)N[C@@H](CCC(N)=O)C(=O)N[C@@H](CCC(=O)O)C(=O)N[C@@H](CCCCN)C(=O)N[C@@H](CC(N)=O)C(=O)N[C@@H](CCC(=O)O)C(=O)N[C@@H](CCC(N)=O)C(=O)N[C@@H](CCC(=O)O)C(=O)N[C@@H](CC(C)C)C(=O)N[C@@H](CC(C)C)C(=O)O)[C@@H](C)CC)CS2)C(=O)N[C@@H](CCCCNC(=O)CNC(=O)C2N[C@H](C(=O)N[C@H](C(=O)N[C@@H](CCC(=O)O)C(=O)N[C@@H](CCC(=O)O)C(=O)N[C@@H](CO)C(=O)N[C@@H](CCC(N)=O)C(=O)N[C@@H](CC(N)=O)C(=O)N[C@@H](CCC(N)=O)C(=O)N[C@@H](CCC(N)=O)C(=O)N[C@@H](CCC(=O)O)C(=O)N[C@@H](CCCCN)C(=O)N[C@@H](CC(N)=O)C(=O)N[C@@H](CCC(=O)O)C(=O)N[C@@H](CCC(N)=O)C(=O)N[C@@H](CCC(=O)O)C(=O)N[C@@H](CC(C)C)C(=O)N[C@@H](CC(C)C)C(=O)O)[C@@H](C)CC)CS2)C(=O)N[C@@H](CO)C(=O)N[C@@H](CO)C(=O)N[C@@H](C)C(N)=O)N1)C(=O)N[C@@H](CCC(=O)O)C(=O)N[C@@H](CCC(=O)O)C(=O)N[C@@H](CO)C(=O)N[C@@H](CCC(N)=O)C(=O)N[C@@H](CC(N)=O)C(=O)N[C@@H](CCC(N)=O)C(=O)N[C@@H](CCC(N)=O)C(=O)N[C@@H](CCC(=O)O)C(=O)N[C@@H](CCCCN)C(=O)N[C@@H](CC(N)=O)C(=O)N[C@@H](CCC(=O)O)C(=O)N[C@@H](CCC(N)=O)C(=O)N[C@@H](CCC(=O)O)C(=O)N[C@@H](CC(C)C)C(=O)N[C@@H](CC(C)C)C(=O)O (stereo partly drawn) [Compound 3α-C16] | > 1000 nM | > 1000 nM | 124 nM
CC(C)C[C@H](NC(=O)[C@H](CO)NC(=O)[C@H](C)NC(=O)[C@H](Cc1c[nH]c2ccccc12)NC(=O)[C@H](CCCCN)NC(=O)[C@H](CC(=O)O)NC(=O)[C@H](CC(C)C)NC(=O)[C@H](CCC(=O)O)NC(=O)[C@H](CC(C)C)NC(=O)[C@H](CC(C)C)NC(=O)[C@H](CCC(=O)O)NC(=O)[C@H](CCC(N)=O)NC(=O)[C@H](CCC(=O)O)NC(=O)[C@H](CC(N)=O)NC(=O)[C@H](CCCCN)NC(=O)[C@H](CCC(=O)O)NC(=O)[C@H](CCC(N)=O)NC(=O)[C@H](CCC(N)=O)NC(=O)[C@H](CC(N)=O)NC(=O)[C@H](CCC(N)=O)NC(=O)[C@@H]1CSC(C(=O)NCCCC[C@H](NC(=O)CCNC(=O)C2N[C@H](C(=O)N[C@@H](CCC(N)=O)C(=O)N[C@@H](CC(N)=O)C(=O)N[C@@H](CCC(N)=O)C(=O)N[C@@H](CCC(N)=O)C(=O)N[C@@H](CCC(=O)O)C(=O)N[C@@H](CCCCN)C(=O)N[C@@H](CC(N)=O)C(=O)N[C@@H](CCC(=O)O)C(=O)N[C@@H](CCC(N)=O)C(=O)N[C@@H](CCC(=O)O)C(=O)N[C@@H](CC(C)C)C(=O)N[C@@H](CC(C)C)C(=O)N[C@@H](CCC(=O)O)C(=O)N[C@@H](CC(C)C)C(=O)N[C@@H](CC(=O)O)C(=O)N[C@@H](CCCCN)C(=O)N[C@@H](Cc3c[nH]c4ccccc34)C(=O)N[C@@H](C)C(=O)N[C@@H](CO)C(=O)N[C@@H](CC(C)C)C(=O)N[C@@H](Cc3c[nH]c4ccccc34)C(=O)N[C@@H](CC(N)=O)C(=O)N[C@@H](Cc3c[nH]c4ccccc34)C(=O)N[C@@H](Cc3ccccc3)C(=O)O)CS2)C(=O)N[C@@H](CCCCNC(=O)CNC(=O)C2N[C@H](C(=O)N[C@@H](CCC(N)=O)C(=O)N[C@@H](CC(N)=O)C(=O)N[C@@H](CCC(N)=O)C(=O)N[C@@H](CCC(N)=O)C(=O)N[C@@H](CCC(=O)O)C(=O)N[C@@H](CCCCN)C(=O)N[C@@H](CC(N)=O)C(=O)N[C@@H](CCC(=O)O)C(=O)N[C@@H](CCC(N)=O)C(=O)N[C@@H](CCC(=O)O)C(=O)N[C@@H](CC(C)C)C(=O)N[C@@H](CC(C)C)C(=O)N[C@@H](CCC(=O)O)C(=O)N[C@@H](CC(C)C)C(=O)N[C@@H](CC(=O)O)C(=O)N[C@@H](CCCCN)C(=O)N[C@@H](Cc3c[nH]c4ccccc34)C(=O)N[C@@H](C)C(=O)N[C@@H](CO)C(=O)N[C@@H](CC(C)C)C(=O)N[C@@H](Cc3c[nH]c4ccccc34)C(=O)N[C@@H](CC(N)=O)C(=O)N[C@@H](Cc3c[nH]c4ccccc34)C(=O)N[C@@H](Cc3ccccc3)C(=O)O)CS2)C(=O)N[C@@H](CO)C(=O)N[C@@H](CO)C(=O)N[C@@H](C)C(N)=O)N1)C(=O)N[C@@H](Cc1c[nH]c2ccccc12)C(=O)N[C@@H](CC(N)=O)C(=O)N[C@@H](Cc1c[nH]c2ccccc12)C(=O)N[C@@H](Cc1ccccc1)C(=O)O (stereo partly drawn) [Compound 3α-C24] | 290 nM | 310 nM | 36 nM
CC[C@H](C)[C@H](NC(=O)[C@H](CC(C)C)NC(=O)[C@H](CO)NC(=O)[C@H](Cc1c[nH]cn1)NC(=O)[C@@H](NC(=O)[C@H](CC(C)C)NC(=O)[C@H](CO)NC(=O)[C@@H](NC(=O)[C@H](Cc1ccc(O)cc1)NC(=O)[C@H](CC(N)=O)NC(=O)[C@H](CC(N)=O)NC(=O)[C@@H](NC(=O)[C@@H]1CSC(C(=O)NCCCC[C@H](NC(=O)CCNC(=O)C2N[C@H](C(=O)N[C@H](C(=O)N[C@@H](CC(N)=O)C(=O)N[C@@H](CC(N)=O)C(=O)N[C@@H](Cc3ccc(O)cc3)C(=O)N[C@H](C(=O)N[C@@H](CO)C(=O)N[C@@H](CC(C)C)C(=O)N[C@H](C(=O)N[C@@H](Cc3c[nH]cn3)C(=O)N[C@@H](CO)C(=O)N[C@@H](CC(C)C)C(=O)N[C@H](C(=O)N[C@@H](CCC(=O)O)C(=O)N[C@@H](CCC(=O)O)C(=O)N[C@@H](CO)C(=O)N[C@@H](CCC(N)=O)C(=O)N[C@@H](CC(N)=O)C(=O)N[C@@H](CCC(N)=O)C(=O)N[C@@H](CCC(N)=O)C(=O)N[C@@H](CCC(=O)O)C(=O)N[C@@H](CCCCN)C(=O)N[C@@H](CC(N)=O)C(=O)N[C@@H](CCC(=O)O)C(=O)N[C@@H](CCC(N)=O)C(=O)N[C@@H](CCC(=O)O)C(=O)N[C@@H](CC(C)C)C(=O)N[C@@H](CC(C)C)C(=O)O)[C@@H](C)CC)[C@@H](C)CC)[C@@H](C)O)[C@@H](C)CC)CS2)C(=O)N[C@@H](CCCCNC(=O)CNC(=O)C2N[C@H](C(=O)N[C@H](C(=O)N[C@@H](CC(N)=O)C(=O)N[C@@H](CC(N)=O)C(=O)N[C@@H](Cc3ccc(O)cc3)C(=O)N[C@H](C(=O)N[C@@H](CO)C(=O)N[C@@H](CC(C)C)C(=O)N[C@H](C(=O)N[C@@H](Cc3c[nH]cn3)C(=O)N[C@@H](CO)C(=O)N[C@@H](CC(C)C)C(=O)N[C@H](C(=O)N[C@@H](CCC(=O)O)C(=O)N[C@@H](CCC(=O)O)C(=O)N[C@@H](CO)C(=O)N[C@@H](CCC(N)=O)C(=O)N[C@@H](CC(N)=O)C(=O)N[C@@H](CCC(N)=O)C(=O)N[C@@H](CCC(N)=O)C(=O)N[C@@H](CCC(=O)O)C(=O)N[C@@H](CCCCN)C(=O)N[C@@H](CC(N)=O)C(=O)N[C@@H](CCC(=O)O)C(=O)N[C@@H](CCC(N)=O)C(=O)N[C@@H](CCC(=O)O)C(=O)N[C@@H](CC(C)C)C(=O)N[C@@H](CC(C)C)C(=O)O)[C@@H](C)CC)[C@@H](C)CC)[C@@H](C)O)[C@@H](C)CC)CS2)C(=O)N[C@@H](CO)C(=O)N[C@@H](CO)C(=O)N[C@@H](C)C(N)=O)N1)[C@@H](C)CC)[C@@H](C)O)[C@@H](C)CC)C(=O)N[C@@H](CCC(=O)O)C(=O)N[C@@H](CCC(=O)O)C(=O)N[C@@H](CO)C(=O)N[C@@H](CCC(N)=O)C(=O)N[C@@H](CC(N)=O)C(=O)N[C@@H](CCC(N)=O)C(=O)N[C@@H](CCC(N)=O)C(=O)N[C@@H](CCC(=O)O)C(=O)N[C@@H](CCCCN)C(=O)N[C@@H](CC(N)=O)C(=O)N[C@@H](CCC(=O)O)C(=O)N[C@@H](CCC(N)=O)C(=O)N[C@@H](CCC(=O)O)C(=O)N[C@@H](CC(C)C)C(=O)N[C@@H](CC(C)C)C(=O)O (stereo partly drawn) [Compound 3α-C27] | 2.8 nM | 380 nM | 0.5 nM
